From ChEMBL document CHEMBL4706657, “The Development of Hsp90β-Selective Inhibitors to Overcome Detriments Associated with pan-Hsp90 Inhibition” (J Med Chem, 2021)
Activity calls are given as the source filed them. The rule behind the calls is not given here.

Experiments:
[1] = molecular target: T1, Heat shock protein HSP 90-alpha (Homo sapiens, UniProt P07900)
Description: Inhibition of FITC-GDA binding to human HSP90-alpha incubated for 2 hrs by fluorescence polarization assay

[2] = molecular target: T2, Heat shock protein HSP 90-beta (Homo sapiens, UniProt P08238)
Description: Inhibition of FITC-GDA binding to human HSP90-beta incubated for 2 hrs by fluorescence polarization assay

Endoplasmin = Endoplasmin (Canis lupus familiaris, UniProt P41148); assay: Inhibition of FITC-GDA binding to dog GRP94 incubated for 2 hrs by fluorescence polarization assay
Sequence of Endoplasmin (P41148 whole entry): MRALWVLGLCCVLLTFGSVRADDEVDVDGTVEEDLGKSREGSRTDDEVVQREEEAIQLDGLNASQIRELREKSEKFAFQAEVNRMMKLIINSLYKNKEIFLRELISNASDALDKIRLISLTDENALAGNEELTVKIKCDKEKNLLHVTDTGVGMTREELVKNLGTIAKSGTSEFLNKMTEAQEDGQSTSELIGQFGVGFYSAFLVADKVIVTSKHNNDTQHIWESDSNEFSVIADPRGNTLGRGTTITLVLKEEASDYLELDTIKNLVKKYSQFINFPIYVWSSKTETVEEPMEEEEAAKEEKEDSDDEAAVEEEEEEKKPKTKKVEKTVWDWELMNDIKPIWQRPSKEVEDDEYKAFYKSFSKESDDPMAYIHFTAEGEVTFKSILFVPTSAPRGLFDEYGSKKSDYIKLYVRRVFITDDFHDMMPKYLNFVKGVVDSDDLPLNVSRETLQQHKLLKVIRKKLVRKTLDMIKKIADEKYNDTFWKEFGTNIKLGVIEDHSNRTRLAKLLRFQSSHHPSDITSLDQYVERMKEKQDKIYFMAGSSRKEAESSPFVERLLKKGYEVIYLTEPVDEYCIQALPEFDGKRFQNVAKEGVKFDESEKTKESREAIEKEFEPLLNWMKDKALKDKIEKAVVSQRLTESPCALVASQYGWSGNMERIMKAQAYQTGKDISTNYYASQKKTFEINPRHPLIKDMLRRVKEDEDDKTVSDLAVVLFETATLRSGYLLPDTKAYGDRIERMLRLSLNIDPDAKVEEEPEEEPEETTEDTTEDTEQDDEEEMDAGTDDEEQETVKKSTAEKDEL

PC-3 = assay: Growth inhibition of human PC-3 cells incubated for 72 hrs by Cell Titer-Glo luminescent cell viability assay; format: functional
[3] = tested on: Panel NCI-60 (60 carcinoma cell lines); assay: Growth inhibition of human NCI60 cells incubated for 72 hrs by Cell Titer-Glo luminescent cell viability assay; format: functional
UMUC3 = conditions: time 72 hrs
[4] = Growth inhibition of human LNCaP-LN3 cells incubated for 72 hrs by Cell Titer-Glo luminescent cell viability assay; format: functional
[5] = molecular target: T2, Heat shock protein HSP 90-beta; conditions: HCT-116, dose 300-1000 nM, time 24.0 hrs
[6] = molecular target: T2, Heat shock protein HSP 90-beta; conditions: HCT-116, dose 300-1000 nM, time 24.0 hrs; remark: listed apart in the source
[7] = molecular target: T1, Heat shock protein HSP 90-alpha; conditions: HCT-116, dose 300-1000 nM, time 24.0 hrs
[8] = molecular target: T2, Heat shock protein HSP 90-beta; conditions: HCT-116, dose 300-1000 nM, time 24.0 hrs; remark: listed apart in the source
[9] = molecular target: T2, Heat shock protein HSP 90-beta; conditions: HCT-116, dose 300-1000 nM, time 24.0 hrs; remark: listed apart in the source
SK-BR-3 [10] = assay: Induction of heat shock response in human SK-BR-3 cells at 1 uM incubated for 18 hrs by Western blot analysis; format: cell-based; conditions: sk-br-3, 18 h
SK-BR-3 [11] = assay: Induction of heat shock response in human SK-BR-3 cells at 10 uM incubated for 18 hrs by Western blot analysis; format: cell-based; conditions: sk-br-3, 18 h

T2 sequence (P08238 whole entry): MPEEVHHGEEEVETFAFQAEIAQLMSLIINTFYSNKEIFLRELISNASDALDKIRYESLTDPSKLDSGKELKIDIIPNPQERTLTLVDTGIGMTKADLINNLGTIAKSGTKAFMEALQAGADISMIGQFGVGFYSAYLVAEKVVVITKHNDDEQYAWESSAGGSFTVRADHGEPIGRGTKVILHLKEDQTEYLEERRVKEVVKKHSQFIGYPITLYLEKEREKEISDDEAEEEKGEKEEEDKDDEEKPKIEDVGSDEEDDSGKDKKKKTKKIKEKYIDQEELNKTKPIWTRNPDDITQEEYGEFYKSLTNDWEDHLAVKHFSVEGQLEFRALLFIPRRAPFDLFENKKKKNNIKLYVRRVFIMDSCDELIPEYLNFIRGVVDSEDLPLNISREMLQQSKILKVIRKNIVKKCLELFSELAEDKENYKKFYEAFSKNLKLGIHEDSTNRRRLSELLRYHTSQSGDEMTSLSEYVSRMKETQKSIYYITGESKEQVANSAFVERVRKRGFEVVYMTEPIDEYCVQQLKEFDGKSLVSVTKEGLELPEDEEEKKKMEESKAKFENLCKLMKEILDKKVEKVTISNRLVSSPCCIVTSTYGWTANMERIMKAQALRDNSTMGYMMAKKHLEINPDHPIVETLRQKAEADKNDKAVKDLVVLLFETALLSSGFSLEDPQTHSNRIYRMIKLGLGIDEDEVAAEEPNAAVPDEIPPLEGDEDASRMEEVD

SMILES | IC50 [1] [nM] | IC50 [2] [nM] | other results
Cc1cc2cc(-n3nc(C)c4c3CC(C)(C)CC4=O)cc(N[C@H]3CC[C@H](O)CC3)c2c(=O)[nH]1 | 294 | 101 | –
CC(C)c1cc(C(=O)N2Cc3ccccc3C2)c(O)c2cnoc12 | – | – | IC50 (Endoplasmin): 8480 nM
CCCC1Cc2cc(-n3nc(C)c4c3CC(C)(C)CC4=O)cc(N3CCC(O)CC3)c2C(=O)N1 (stereo not drawn) | > 10000 | > 5000 | –
CCCc1cc2cc(-n3nc(C)c4c3CC(C)(C)CC4=O)cc(N3CCOCC3)c2c(=O)[nH]1 | > 50000 | 121 | –
CCCc1cc2cc(-n3nc(C)c4c3CC(C)(C)CC4=O)cc(N(C)CCN(CC)CC)c2c(=O)[nH]1 | > 50000 | 4460 | –
CCCc1cc2cc(-n3nc(C)c4c3CC(C)(C)CC4=O)cc(NC3CCN(C)CC3)c2c(=O)[nH]1 | 17100 | 513 | –
Cc1nn(-c2cc(N[C@H]3CC[C@H](O)CC3)c3c(=O)[nH]c(CC(C)C)cc3c2)c2c1C(=O)CC(C)(C)C2 | > 50000 | 264 | –
Cc1nn(-c2cc(N[C@H]3CC[C@H](O)CC3)c3c(=O)[nH]c(C(C)C)cc3c2)c2c1C(=O)CC(C)(C)C2 | 173 | 51 | –
CCCc1cc2cc(-n3nc(C)c4c3CC(C)(C)CC4=O)cc(N[C@H]3CC[C@H](O)CC3)c2c(=O)[nH]1 | – | – | GI50 (PC-3): 1560 nM; GI50 [3]: < 100 nM; GI50 (UMUC3): 450 nM; GI50 [4]: 1070 nM
CCCCc1cc2cc(-n3nc(C)c4c3CC(C)(C)CC4=O)cc(N[C@H]3CC[C@H](O)CC3)c2c(=O)[nH]1 | > 50000 | 156 | –
CCCc1cc2cc(-n3nc(C)c4c3CC(C)(C)CC4=O)cc(N3CCNCC3)c2c(=O)[nH]1 | > 50000 | 4470 | –
CCc1cc2cc(-n3nc(C)c4c3CC(C)(C)CC4=O)cc(N[C@H]3CC[C@H](O)CC3)c2c(=O)[nH]1 | 180 | 68 | –
CCCC1Cc2cc(-n3nc(C)c4c3CC(C)(C)CC4=O)cc(N[C@H]3CC[C@H](O)CC3)c2C(=O)N1 (stereo partly drawn) | 1600 | 33 | inhibition [5]: Active; inhibition [6]: Active; GI50 [3]: < 100 nM; inhibition [7]: inactive; inhibition [8]: Active; inhibition [9]: Active
Cc1nn(-c2cc(N[C@H]3CC[C@H](O)CC3)c3c(=O)[nH]c(C4CC4)cc3c2)c2c1C(=O)CC(C)(C)C2 | 1880 | 946 | –
Cc1cn(-c2cc3c(c(C4CCCC4)c2)C(=O)NCC3)c2c1C(=O)CC(C)(C)C2 | – | – | IC50 (Endoplasmin): > 10000 nM
COCc1cc2cc(-n3nc(C)c4c3CC(C)(C)CC4=O)cc(N[C@H]3CC[C@H](O)CC3)c2c(=O)[nH]1 | 306 | 159 | –
Cc1nn(-c2cc(N[C@H]3CC[C@H](O)CC3)c3c(=O)[nH]c(CO)cc3c2)c2c1C(=O)CC(C)(C)C2 | 824 | 233 | –
Cc1nn(-c2cc(N[C@H]3CC[C@H](O)CC3)c3c(=O)[nH]c(C(C)(C)C)cc3c2)c2c1C(=O)CC(C)(C)C2 | > 50000 | > 50000 | –
CCCc1cc2cc(-n3nc(C)c4c3CC(C)(C)CC4=O)cc(N3CCN(C(=O)OC(C)(C)C)CC3)c2c(=O)[nH]1 | > 50000 | 463 | –
CCCc1cc2cc(-n3nc(C)c4c3CC(C)(C)CC4=O)cc(N3CCN(C)CC3)c2c(=O)[nH]1 | 8520 | 426 | –
COC1=C2C[C@@H](C)C[C@H](OC)[C@H](O)[C@@H](C)/C=C(\C)[C@H](OC(N)=O)[C@@H](OC)/C=C\C=C(/C)C(=O)NC(=CC1=O)C2=O [GELDANAMYCIN] | – | – | Activity (SK-BR-3 [10]): Toxic
CCCc1cc2cc(-n3nc(C)c4c3CC(C)(C)CC4=O)cc(N3CCC(O)CC3)c2c(=O)[nH]1 | – | – | Activity (SK-BR-3 [11]): Non-Toxic
